Values of other authors in PMC3048208 (British Journal of Cancer, 2011).
Where a name gives a salt, the structure may show the parent alone.

How the values were obtained:
[1] = system: patients with solid tumours; parameters: method as in Yong et al, 2008; conditions: three times weekly, 3 out of 4 weeks; ref Yong et al, 2008; cited from earlier work
[2] = system: wide variety of cell lines; parameters: method as in Novotny-Diermayr et al, 2010; conditions: in vitro; ref Novotny-Diermayr et al, 2010; cited from earlier work
[3] = parameters: method as in Novotny-Diermayr et al, 2010; conditions: animal pre-clinical models; ref Novotny-Diermayr et al, 2010; cited from earlier work
class I, II and IV HDACs = conditions: in vitro; ref Novotny-Diermayr et al, 2010; cited from earlier work
HCT-116 cells = system: HCT-116 cells; parameters: method as in Novotny-Diermayr et al, 2010; conditions: ref Novotny-Diermayr et al, 2010; cited from earlier work
[4] = system: xenograft models of colon (HCT-116), ovarian (A2780) and prostate (PC3, DU145) carcinomas; parameters: method as in Novotny-Diermayr et al, 2010; conditions: ref Novotny-Diermayr et al, 2010, cited from earlier work

**Q.** What does the source list for `CCCCc1nc2cc(/C=C/C(=O)NO)ccc2n1CCN(CC)CC` [SB939, 3-[2-butyl-1-(2-diethylaminoethyl)-1H-benzoimidazol-5-yl]-N-hydroxyacrylami-hydrochloride]?
**A.** RPTD [1]: 60 mg; Anti-proliferative activities [2]: significant anti-proliferative activities; Increase in bioavailability compared with vorinostat [3]: > 4 fold; Longer half-life compared with vorinostat [3]: 3.3 fold; Selectivity for class I, II and IV HDACs compared with class III HDACs (class I, II and IV HDACs): > 1000 fold; Effectiveness compared with vorinostat (HCT-116 cells): more effective than vorinostat; Anti-tumour efficacy ([4]; HCT-116, A2780, PC3, DU145 xenografts, MV4-11, HL-60 and B cell lymphoma murine models): dose-dependent anti-tumour efficacy; Drug accumulation and inhibition of histone deacetylation in tumour tissues compared with vorinostat ([4]; preclinical experiments): prolonged drug accumulation and more sustained inhibition of histone deacetylation
